Experimental findings from patent publication US5482967A, “Condensed heterocyclic compounds, their production and use” (Takeda Chemical Industries, Ltd., priority 1992, dated 1996) are described below.

In the test the target is T1, acyl-CoA:cholesterol acyl transferase (ACAT) (Rattus norvegicus, UniProt Q7TQM4).
T1 construct: small intestine mucosal microsome fraction of a 6-week-old male Sprague-Dawley rat; from tissue; host or cells: rat small intestine mucosa, microsome fraction
T1 sequence (Q7TQM4 1-524): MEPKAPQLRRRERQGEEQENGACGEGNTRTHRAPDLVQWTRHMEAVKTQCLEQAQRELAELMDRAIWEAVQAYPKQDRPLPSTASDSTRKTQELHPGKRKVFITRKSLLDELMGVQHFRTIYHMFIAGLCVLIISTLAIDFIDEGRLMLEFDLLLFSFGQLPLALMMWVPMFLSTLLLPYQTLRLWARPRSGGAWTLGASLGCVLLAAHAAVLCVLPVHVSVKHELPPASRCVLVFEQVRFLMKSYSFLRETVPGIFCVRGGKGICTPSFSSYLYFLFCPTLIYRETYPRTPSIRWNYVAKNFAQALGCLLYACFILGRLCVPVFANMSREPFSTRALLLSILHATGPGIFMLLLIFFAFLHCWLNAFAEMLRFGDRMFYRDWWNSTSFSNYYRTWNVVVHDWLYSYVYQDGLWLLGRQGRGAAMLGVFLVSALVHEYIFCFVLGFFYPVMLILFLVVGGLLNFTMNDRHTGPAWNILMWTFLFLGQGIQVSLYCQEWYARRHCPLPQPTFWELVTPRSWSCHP
Nature of the test: Inhibitory action against acyl-CoA:cholesterol acyl transferase (ACAT), formation of labeled cholesterol ester, small intestine mucosal microsome fraction. It counts as biochemical, male Sprague-Dawley rat. To be noted: 10^-6 M; read-out: ACAT Inhibitory Rate (%). Here is the method: An ACAT enzyme preparation was prepared from a small intestine mucosal microsome fraction of a 6-week-old male Sprague-Dawley rat, previously fasted for 20 hours, in accordance with the method described by Heider et al. in the Journal of Lipid Research, Vol. 24, page 1127 (1982).
ACAT activity was determined by measuring the amount of labeled cholesterol ester produced from [1-^14 C]-oleoyl-CoA and endogenous cholesterol, in accordance with the method of Helgerud et al. [Journal of Lipid Research, Vol. 22, page 271 (1981)].

Consider `COc1cc2c(cc1OC)N(C)C(=O)C(CC(=O)Nc1c(C(C)C)cccc1C(C)C)C2c1ccccc1` (centres unmarked) [Example 18, N-[2,6-Bis(1-methylethyl)phenyl]-1,2,3,4-tetrahydro-6,7-dimethoxy-1-methyl-2-oxo-4-phenyl-3-quinolineacetamide], for which the inhibition at 1 µM was 97.3%.

In the case of `CC(C)c1cccc(C(C)C)c1NC(=O)CC1C(=O)N(C)c2ccc(Cl)cc2C1(C)c1ccccc1` (centres unmarked) [Example 19, N-[2,6-Bis-(1-methylethyl)phenyl]-6-chloro-1,2,3,4-tetrahydro-1,4-dimethyl-2-oxo-4-phenyl-3-quinolineacetamide], the inhibition at 1 µM came out at 99.1%.

Regarding `CC(C)c1cccc(C(C)C)c1NC(=O)CC1C(=O)N(C)c2ccc(Cl)cc2N1c1ccccc1` (centres unmarked) [Example 42, N-[2,6-Bis(1-methylethyl)phenyl]-6-chloro-1,2,3,4-tetrahydro-1-methyl-2-oxo-4-phenyl-3-quinoxalineacetamide], the inhibition at 1 µM was determined as 96.6%.

Take `COc1cc(OC)c(NC(=O)CC2C(=O)N(C)c3ccc(Cl)cc3N2c2ccccc2)c(OC)c1` (centres unmarked) [Example 43, 6-Chloro-1,2,3,4-tetrahydro-1-methyl-2-oxo-4-phenyl-N-(2,4,6-trimethoxyphenyl)-3-quinoxalineacetamide]: the inhibition at 1 µM turned out to be 98.2%.

As to `CC(C)c1cccc(C(C)C)c1NC(=O)Cc1c(-c2ccccc2)c2cc(Cl)ccc2n(C)c1=O` [Example 45, N-[2,6-Bis(1-methylethyl)phenyl]-6-chloro-1,2-dihydro-1-methyl-2-oxo-4-phenyl-3-quinolineacetamide], the inhibition at 1 µM came to 99.5%.

For `Cc1cc2c(-c3ccccc3)c(CC(=O)Nc3c(C(C)C)cccc3C(C)C)n(C)c(=O)c2cc1C` [Example 47, N-[2,6-Bis(1-methylethyl)phenyl]-1,2-dihydro-2,6,7-trimethyl-1-oxo-4-phenyl-3-isoquinolineacetamide], the inhibition at 1 µM is 90.3%.

For the compound `O=C(Cc1oc(=O)c2ccc(Cl)cc2c1-c1ccccc1)Nc1ccc(F)cc1F` [Example 49, 6-Chloro-N-(2,4-difluorophenyl)-1-oxo-4-phenyl-1H-2-benzopyran-3-acetamide], the inhibition at 1 µM was determined as 92.8%.

Take `CC(C)c1cccc(C(C)C)c1NC(=O)Cc1c(-c2ccccc2)c2cc(Cl)ccc2oc1=O` [Example 50, N-[2,6-Bis(1-methylethyl)phenyl]-6-chloro-2-oxo-4-phenyl-2H-1-benzopyran-3-acetamide]: the inhibition at 1 µM amounted to 95.7%.

`COc1cc(OC)c(NC(=O)Cc2c(-c3ccccc3)c3cc(Cl)ccc3oc2=O)c(OC)c1` [Example 51, 6-Chloro-2-oxo-4-phenyl-N-(2,4,6-trimethoxyphenyl)-2H-1-benzopyran-3-acetamide]: the inhibition at 1 µM was found to be 98.1%.

Consider `O=C(Cc1c(-c2ccccc2)c2cc(Cl)ccc2oc1=O)Nc1ccc(F)cc1F` [Example 52, 6-Chloro-N-(2,4-difluorophenyl)-2-oxo-4-phenyl-2H-1-benzopyran-3-acetamide], for which the inhibition at 1 µM turned out to be 90.4%.

Take `Cc1ccc2oc(=O)c(CC(=O)Nc3c(C(C)C)cccc3C(C)C)c(-c3ccccc3)c2c1` [Example 53, N-[2,6-Bis(1-methylethyl)phenyl]-6-methyl-2-oxo-4-phenyl-2H-1-benzopyran-3-acetamide]: the inhibition at 1 µM was determined as 99.7%.

For `COc1cc(OC)c(NC(=O)Cc2c(-c3ccccc3)c3cc(C)ccc3oc2=O)c(OC)c1` [Example 54, 6-Methyl-2-oxo-4-phenyl-N-(2,4,6-trimethoxyphenyl)-2H-1-benzopyran-3-acetamide], the inhibition at 1 µM came to 98.4%.

On to `Cc1ccc2oc(=O)c(CC(=O)Nc3ccc(F)cc3F)c(-c3ccccc3)c2c1` [Example 55, N-(2,4-Difluorophenyl)-6-methyl-2-oxo-4-phenyl-2H-1-benzopyran-3-acetamide], for which the inhibition at 1 µM was 97.9%.

On to `COc1ccccc1-c1c(CC(=O)Nc2c(C(C)C)cccc2C(C)C)oc(=O)c2ccccc12` [Example 56, N-[2,6-Bis(1-methylethyl)phenyl]-4-(2-methoxyphenyl)-1-oxo-1H-2-benzopyran-3-acetamide], for which the inhibition at 1 µM was 98.1%.

With `CC(C)c1cccc(C(C)C)c1NC(=O)Cc1cnc2ccc(Cl)cc2c1-c1ccccc1` [Example 57, N-[2,6-Bis(1-methylethyl)phenyl]-6-chloro-4-phenyl-3-quinolineacetamide], the inhibition at 1 µM came out at 99.3%.

For `Cc1ccc2c(c1)N(c1ccccc1)C(CC(=O)Nc1c(C(C)C)cccc1C(C)C)C(=O)N2C` (centres unmarked) [Example 64, N-[2,6-Bis(1-methylethyl)phenyl]-1,2,3,4-tetrahydro-1,6-dimethyl-2-oxo-4-phenyl-3-quinoxalineacetamide], the inhibition at 1 µM was determined as 99.5%.

On to `COc1cccc(OC)c1NC(=O)Cc1oc(=O)c2ccc(Cl)cc2c1-c1ccccc1` [Example 76, 6-Chloro-N-(2,6-dimethoxyphenyl)-1-oxo-4-phenyl-1H-2-benzopyran-3-acetamide], for which the inhibition at 1 µM is 99.3%.

Regarding `COc1cccc(OC)c1NC(=O)Cc1c(-c2ccccc2)c2cc(Cl)ccc2oc1=O` [Example 79, 6-Chloro-N-(2,6-dimethoxyphenyl)-2-oxo-4-phenyl-2H-1-benzopyran-3-acetamide], the inhibition at 1 µM was determined as 99.1%.

On to `Cc1ccccc1-c1c(CC(=O)Nc2ccc(F)cc2F)c(=O)oc2ccc(Cl)cc12` [Example 83, 6-Chloro-N-(2,4-difluorophenyl)-4-(2-methylphenyl)-2-oxo-2H-1-benzopyran-3-acetamide], for which the inhibition at 1 µM came to 99.4%.

Regarding `COc1cc(OC)c(NC(=O)Cc2c(-c3ccccc3C)c3cc(Cl)ccc3oc2=O)c(OC)c1` [Example 85, 6-Chloro-4-(2-methylphenyl)-2-oxo-N-(2,4,6-trimethoxyphenyl)-2H-1-benzopyran-3-acetamide], the inhibition at 1 µM was found to be 99.5%.

As to `Cc1cc(C)c(NC(=O)Cc2c(-c3ccccc3C)c3cc(Cl)ccc3oc2=O)c(C)c1` [Example 87, 6-Chloro-4-(2-methylphenyl)-2-oxo-N-(2,4,6-trimethylphenyl)-2H-1-benzopyran-3-acetamide], the inhibition at 1 µM was determined as 99.3%.

`CCOc1cccc(OCC)c1NC(=O)Cc1c(-c2ccccc2C)c2cc(Cl)ccc2oc1=O` [Example 88, 6-Chloro-N-(2,6-diethoxyphenyl)-4-(2-methylphenyl)-2-oxo-2H-1-benzopyran-3-acetamide]: the inhibition at 1 µM turned out to be 99.7%.

For the compound `CCOc1cc(F)cc(OCC)c1NC(=O)Cc1c(-c2ccccc2C)c2cc(Cl)ccc2oc1=O` [Example 89, 6-Chloro-N-(2,6-diethoxy-4-fluorophenyl)-4-(2-methylphenyl)-2-oxo-2H-1-benzopyran-3-acetamide], the inhibition at 1 µM stood at 98.2%.

With `COc1ccccc1-c1c(CC(=O)Nc2c(C(C)C)cccc2C(C)C)c(=O)oc2ccc(Cl)cc12` [Example 92, N-[2,6-Bis(1-methylethyl)phenyl]-6-chloro-4-(2-methoxyphenyl)-2-oxo-2H-1-benzopyran-3-acetamide], the inhibition at 1 µM was determined as 98.2%.

Regarding `CCOc1cccc(OCC)c1NC(=O)Cc1c(-c2ccccc2OC)c2cc(Cl)ccc2oc1=O` [Example 93, 6-Chloro-N-(2,6-diethoxyphenyl)-4-(2-methoxyphenyl)-2-oxo-2H-1-benzopyran-3-acetamide], the inhibition at 1 µM was found to be 99%.

In the case of `CC(C)c1cccc(C(C)C)c1NC(=O)Cc1c(-c2ccccc2C(F)(F)F)c2cc(Cl)ccc2oc1=O` [Example 94, N-[2,6-Bis(1-methylethyl)phenyl]-6-chloro-2-oxo-4-(2-trifluoromethylphenyl)-2H-1-benzopyran-3-acetamide], the inhibition at 1 µM was 98.6%.

Consider `CCOc1cccc(OCC)c1NC(=O)Cc1c(-c2ccccc2C(F)(F)F)c2cc(Cl)ccc2oc1=O` [Example 95, 6-Chloro-N-(2,6-diethoxyphenyl)-2-oxo-4-(2-trifluoromethylphenyl)-2H-1-benzopyran-3-acetamide], for which the inhibition at 1 µM turned out to be 99.1%.

As to `CCOc1cc(F)cc(OCC)c1NC(=O)Cc1c(-c2ccccc2C(F)(F)F)c2cc(Cl)ccc2oc1=O` [Example 96, 6-Chloro-N-(2,6-diethoxy-4-fluorophenyl)-2-oxo-4-(2-trifluoromethylphenyl)-2H-1-benzopyran-3-acetamide], the inhibition at 1 µM came to 99.3%.

On to `CC(C)c1cccc(C(C)C)c1NC(=O)CC1=C(c2ccccc2)c2cc(Cl)ccc2N(C)C1` [Example 99, N-[2,6-Bis(1-methylethyl)phenyl]-6-chloro-1,2-dihydro-1-methyl-4-phenyl-3-quinolineacetamide], for which the inhibition at 1 µM stood at 97%.
